Reference: PubChem BioAssay (NCI)
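All cell lines were grown in 96-well plates and treated with compound for 48 hours. Definition used: TGI = concentration required for complete inhibition of growth.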

What was measured:
Test in all cases: growth of human tumour cells (NCI), 48 h
NCI-H23 lung = tested on: NCI-H23 lung
UACC-257 melanoma = tested on: UACC-257 melanoma
XF 498 CNS = tested on: XF 498 CNS
KM12 colon = tested on: KM12 colon
DLD-1 colon = tested on: DLD-1 colon
DMS 114 small cell lung = tested on: DMS 114 small cell lung
HCT-15 colon = tested on: HCT-15 colon
A498 renal = tested on: A498 renal
IGROV1 ovarian = tested on: IGROV1 ovarian
SNB-78 CNS = tested on: SNB-78 CNS
K-562 leukemia = tested on: K-562 leukemia
RXF 393 renal = tested on: RXF 393 renal
KM20L2 colon = tested on: KM20L2 colon
HT29 colon = tested on: HT29 colon
ACHN renal = tested on: ACHN renal
LXFL 529 NSCLC = tested on: LXFL 529 NSCLC
SW-620 colon = tested on: SW-620 colon
HCT-116 colon = tested on: HCT-116 colon
EKVX NSCLC = tested on: EKVX NSCLC
HOP-18 NSCLC = tested on: HOP-18 NSCLC
M19-MEL melanoma = tested on: M19-MEL melanoma
HOP-62 NSCLC = tested on: HOP-62 NSCLC
COLO 205 colon = tested on: COLO 205 colon
OVCAR-5 ovarian = tested on: OVCAR-5 ovarian
MOLT-4 leukemia = tested on: MOLT-4 leukemia
SN12C renal = tested on: SN12C renal
OVCAR-8 ovarian = tested on: OVCAR-8 ovarian
A549 NSCLC = tested on: A549 NSCLC
SK-MEL-5 melanoma = tested on: SK-MEL-5 melanoma
MALME-3M melanoma = tested on: MALME-3M melanoma
SNB-75 CNS = tested on: SNB-75 CNS
HCC-2998 colon = tested on: HCC-2998 colon
SK-OV-3 ovarian = tested on: SK-OV-3 ovarian
U251 CNS = tested on: U251 CNS
HL-60(TB) leukemia = tested on: HL-60(TB) leukemia
SR leukemia = tested on: SR leukemia
UACC-62 melanoma = tested on: UACC-62 melanoma
OVCAR-4 ovarian = tested on: OVCAR-4 ovarian
SF-295 CNS = tested on: SF-295 CNS
UO-31 renal = tested on: UO-31 renal
NCI-H522 lung = tested on: NCI-H522 lung
SF-268 CNS = tested on: SF-268 CNS
786-0 renal = tested on: 786-0 renal
SF-539 CNS = tested on: SF-539 CNS
SNB-19 CNS = tested on: SNB-19 CNS
CCRF-CEM leukemia = tested on: CCRF-CEM leukemia
HOP-92 NSCLC = tested on: HOP-92 NSCLC
RXF-631 renal = tested on: RXF-631 renal
NCI-H226 lung = tested on: NCI-H226 lung
TK-10 renal = tested on: TK-10 renal
M14 melanoma = tested on: M14 melanoma
NCI-H460 lung = tested on: NCI-H460 lung
OVCAR-3 ovarian = tested on: OVCAR-3 ovarian
SK-MEL-28 melanoma = tested on: SK-MEL-28 melanoma
CAKI-1 renal = tested on: CAKI-1 renal
DMS 273 small cell lung = tested on: DMS 273 small cell lung
RPMI-8226 leukemia = tested on: RPMI-8226 leukemia
LOX IMVI melanoma = tested on: LOX IMVI melanoma
SK-MEL-2 melanoma = tested on: SK-MEL-2 melanoma
MDA-N = tested on: MDA-N
DU-145 prostate = tested on: DU-145 prostate
BT-549 breast = tested on: BT-549 breast
MDA-MB-231 breast = tested on: MDA-MB-231 breast
T-47D breast = tested on: T-47D breast
NCI/ADR-RES ovarian = tested on: NCI/ADR-RES ovarian
MDA-MB-435 = tested on: MDA-MB-435
PC-3 prostate = tested on: PC-3 prostate
HS 578T breast = tested on: HS 578T breast
MCF7 breast = tested on: MCF7 breast

C=CC1(c2ccccc2Cl)N/C(=C/OCC)CO1 (stereo not drawn)
TGI (NCI-H23 lung): > 100 µM | TGI (UACC-257 melanoma): > 100 µM | TGI (XF 498 CNS): > 100 µM | TGI (KM12 colon): > 100 µM | TGI (DLD-1 colon): > 100 µM | TGI (DMS 114 small cell lung): > 100 µM | TGI (HCT-15 colon): > 100 µM | TGI (A498 renal): > 100 µM | TGI (IGROV1 ovarian): > 100 µM | TGI (SNB-78 CNS): > 100 µM | TGI (K-562 leukemia): > 100 µM | TGI (RXF 393 renal): > 100 µM | TGI (KM20L2 colon): > 100 µM | TGI (HT29 colon): > 100 µM | TGI (ACHN renal): > 100 µM | TGI (LXFL 529 NSCLC): > 100 µM | TGI (SW-620 colon): 28.4 µM | TGI (HCT-116 colon): > 100 µM | TGI (EKVX NSCLC): > 100 µM | TGI (HOP-18 NSCLC): > 100 µM | TGI (M19-MEL melanoma): > 100 µM | TGI (HOP-62 NSCLC): > 100 µM | TGI (COLO 205 colon): > 100 µM | TGI (OVCAR-5 ovarian): > 100 µM | TGI (MOLT-4 leukemia): > 100 µM | TGI (SN12C renal): > 100 µM | TGI (OVCAR-8 ovarian): > 100 µM | TGI (A549 NSCLC): > 100 µM | TGI (SK-MEL-5 melanoma): > 100 µM | TGI (MALME-3M melanoma): > 100 µM | TGI (SNB-75 CNS): > 100 µM | TGI (HCC-2998 colon): > 100 µM | TGI (SK-OV-3 ovarian): > 100 µM | TGI (U251 CNS): > 100 µM | TGI (HL-60(TB) leukemia): > 100 µM | TGI (SR leukemia): > 100 µM | TGI (UACC-62 melanoma): > 100 µM | TGI (OVCAR-4 ovarian): > 100 µM | TGI (SF-295 CNS): > 100 µM | TGI (UO-31 renal): > 100 µM | TGI (NCI-H522 lung): > 100 µM | TGI (SF-268 CNS): > 100 µM | TGI (786-0 renal): > 100 µM | TGI (SF-539 CNS): > 100 µM | TGI (SNB-19 CNS): > 100 µM | TGI (CCRF-CEM leukemia): > 100 µM | TGI (HOP-92 NSCLC): > 100 µM | TGI (RXF-631 renal): > 100 µM | TGI (NCI-H226 lung): > 100 µM | TGI (TK-10 renal): > 100 µM | TGI (M14 melanoma): > 100 µM | TGI (NCI-H460 lung): > 100 µM | TGI (OVCAR-3 ovarian): > 100 µM | TGI (SK-MEL-28 melanoma): > 100 µM | TGI (CAKI-1 renal): > 100 µM | TGI (DMS 273 small cell lung): > 100 µM | TGI (RPMI-8226 leukemia): 65 µM | TGI (LOX IMVI melanoma): 55.3 µM | TGI (SK-MEL-2 melanoma): > 100 µM

C=C(CN(C)C)C(=O)c1ccc(C)cc1C
TGI (NCI-H23 lung): 27.3 µM | TGI (UACC-257 melanoma): 24.8 µM | TGI (XF 498 CNS): 27.6 µM | TGI (KM12 colon): 31 µM | TGI (DLD-1 colon): 14.2 µM | TGI (DMS 114 small cell lung): 46.6 µM | TGI (HCT-15 colon): 12.5 µM | TGI (A498 renal): 33.7 µM | TGI (IGROV1 ovarian): 17.7 µM | TGI (SNB-78 CNS): 60.4 µM | TGI (K-562 leukemia): 9.74 µM | TGI (RXF 393 renal): 9.4 µM | TGI (KM20L2 colon): 39 µM | TGI (HT29 colon): 36.6 µM | TGI (MDA-N): 14.3 µM | TGI (ACHN renal): 19.3 µM | TGI (LXFL 529 NSCLC): 26.9 µM | TGI (SW-620 colon): 13.5 µM | TGI (HCT-116 colon): 13 µM | TGI (EKVX NSCLC): 40 µM | TGI (DU-145 prostate): 33.5 µM | TGI (HOP-18 NSCLC): 30.3 µM | TGI (M19-MEL melanoma): 43.1 µM | TGI (HOP-62 NSCLC): 47.5 µM | TGI (COLO 205 colon): 11.3 µM | TGI (OVCAR-5 ovarian): 31.1 µM | TGI (MOLT-4 leukemia): 2.25 µM | TGI (SN12C renal): 33.4 µM | TGI (OVCAR-8 ovarian): 37.4 µM | TGI (A549 NSCLC): 63.1 µM | TGI (SK-MEL-5 melanoma): 28.8 µM | TGI (BT-549 breast): 12.7 µM | TGI (MALME-3M melanoma): 20.2 µM | TGI (SNB-75 CNS): 34.9 µM | TGI (HCC-2998 colon): 31.5 µM | TGI (SK-OV-3 ovarian): 39.6 µM | TGI (U251 CNS): 47.8 µM | TGI (MDA-MB-231 breast): 52.1 µM | TGI (HL-60(TB) leukemia): 11.6 µM | TGI (SR leukemia): 4.26 µM | TGI (T-47D breast): 18.6 µM | TGI (NCI/ADR-RES ovarian): 40.3 µM | TGI (MDA-MB-435): 17.1 µM | TGI (UACC-62 melanoma): 31.5 µM | TGI (OVCAR-4 ovarian): 33.5 µM | TGI (SF-295 CNS): 31.6 µM | TGI (UO-31 renal): 22.3 µM | TGI (NCI-H522 lung): 14.4 µM | TGI (SF-268 CNS): 35.4 µM | TGI (PC-3 prostate): 31.1 µM | TGI (786-0 renal): 12.5 µM | TGI (SF-539 CNS): 30 µM | TGI (HS 578T breast): > 79 µM | TGI (SNB-19 CNS): 57.7 µM | TGI (CCRF-CEM leukemia): 2.14 µM | TGI (HOP-92 NSCLC): 10.4 µM | TGI (RXF-631 renal): 36.9 µM | TGI (NCI-H226 lung): 34.5 µM | TGI (TK-10 renal): 22.2 µM | TGI (MCF7 breast): 13.9 µM | TGI (M14 melanoma): 14.5 µM | TGI (NCI-H460 lung): 46.9 µM | TGI (OVCAR-3 ovarian): 21.3 µM | TGI (SK-MEL-28 melanoma): 20.4 µM | TGI (CAKI-1 renal): 8.39 µM | TGI (DMS 273 small cell lung): 44.2 µM | TGI (RPMI-8226 leukemia): > 100 µM | TGI (LOX IMVI melanoma): 15.2 µM | TGI (SK-MEL-2 melanoma): 37 µM
